Data reported in PubChem BioAssay AID330 (DTP/NCI, 2004).
Where “and” joins values, the source holds several entries; their conditions need not be identical. Identical values can stand only once. Toxic doses and inconclusive results are not listed.

Test system: P388 leukemia ip, CD2F1 mice, survival T/C
Test: NCI In Vivo Anticancer Drug Screen. Data for tumor model P388 Leukemia (intraperitoneal) in CD2F1 (CDF1) mice
Details: endpoint: median survival time, higher = longer survival
How it was run: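 Mice carrying the transplanted tumor received test compound or vehicle. Survival was recorded in each group, and the value is the treated-group measurement divided by that of the vehicle-treated control group.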

[1] = dose: 50.0 mg/kg/injection, schedule: Q01DX009 (ip), vehicle: Klucel (hydroxypropylcellulose) (HPC)
[2] = dose: 100.0 mg/kg/injection, schedule: Q01DX009 (ip), vehicle: Klucel (hydroxypropylcellulose) (HPC)
[3] = dose: 200.0 mg/kg/injection, schedule: Q01DX009 (ip), vehicle: Klucel (hydroxypropylcellulose) (HPC)
[4] = dose: 50.0 mg/kg/injection, schedule: Q01DX005 (ip), vehicle: Klucel (hydroxypropylcellulose) (HPC)
[5] = dose: 100.0 mg/kg/injection, schedule: Q01DX005 (ip), vehicle: Klucel (hydroxypropylcellulose) (HPC)
[6] = dose: 200.0 mg/kg/injection, schedule: Q01DX005 (ip), vehicle: Klucel (hydroxypropylcellulose) (HPC)
[7] = dose: 25.0 mg/kg/injection, schedule: Q01DX009 (ip), vehicle: saline with Tween-80
[8] = dose: 50.0 mg/kg/injection, schedule: Q01DX009 (ip), vehicle: saline with Tween-80
[9] = dose: 100.0 mg/kg/injection, schedule: Q01DX009 (ip), vehicle: saline with Tween-80
[10] = dose: 200.0 mg/kg/injection, schedule: Q01DX009 (ip), vehicle: saline with Tween-80
[11] = dose: 25.0 mg/kg/injection, schedule: Q01DX005 (ip), vehicle: Klucel (hydroxypropylcellulose) (HPC)
[12] = dose: 12.5 mg/kg/injection, schedule: Q01DX009 (ip), vehicle: Klucel (hydroxypropylcellulose) (HPC)
[13] = dose: 25.0 mg/kg/injection, schedule: Q01DX009 (ip), vehicle: Klucel (hydroxypropylcellulose) (HPC)
[14] = dose: 6.25 mg/kg/injection, schedule: Q01DX009 (ip), vehicle: saline with Tween-80
[15] = dose: 12.5 mg/kg/injection, schedule: Q01DX009 (ip), vehicle: saline with Tween-80

SMILES: O=S(=O)(c1ccc(NC(=S)N2CCCCC2)cc1)N1CCCCC1
- T/C [1]: 95 % of control
- T/C [2]: 88 % of control
- T/C [3]: 86 % of control

SMILES: C[C@@]12CCC[C@@H]1OC(=O)C2
- T/C (dose: 50.0 mg/kg/injection, schedule: Q01DX005 (ip), vehicle: saline with Tween-80): 98 % of control

SMILES: CC(=O)/C=C1/N(C)c2ccccc2C1(C)C
- T/C [4]: 100 % of control
- T/C [5]: 100 % of control
- T/C [6]: 99 % of control

SMILES: Cn1cc(/C=C/[N+](=O)[O-])c2ccc(OCc3ccccc3)cc21
- T/C (dose: 100.0 mg/kg/injection, schedule: Q04DX003 (ip), vehicle: Klucel (hydroxypropylcellulose) (HPC)): 105 % of control
- T/C (dose: 200.0 mg/kg/injection, schedule: Q04DX003 (ip), vehicle: Klucel (hydroxypropylcellulose) (HPC)): 95 % of control
- T/C (dose: 400.0 mg/kg/injection, schedule: Q04DX003 (ip), vehicle: Klucel (hydroxypropylcellulose) (HPC)): 97 % of control

SMILES: C[C@]12CCC(=O)C(O)=C1CC[C@@H]1[C@@H]2CC[C@@]2(C)[C@H]1CC[C@]2(C)O
- T/C [7]: 92 % of control
- T/C (dose: 25.0 mg/kg/injection, schedule: Q04DX003 (ip), vehicle: saline with Tween-80): 100 % of control
- T/C [8]: 100 % of control
- T/C (dose: 50.0 mg/kg/injection, schedule: Q04DX003 (ip), vehicle: saline with Tween-80): 105 % of control
- T/C [9]: 98 % of control
- T/C (dose: 100.0 mg/kg/injection, schedule: Q04DX003 (ip), vehicle: saline with Tween-80): 101 % of control
- T/C [10]: 101 % of control
- T/C (dose: 200.0 mg/kg/injection, schedule: Q04DX003 (ip), vehicle: saline with Tween-80): 105 % of control

SMILES: Oc1c(Br)cc(Br)cc1Oc1c(O)c(Br)c(Br)c(Br)c1Br
- T/C (dose: 6.25 mg/kg/injection, schedule: Q01DX005 (ip), vehicle: Klucel (hydroxypropylcellulose) (HPC)): 104 % of control
- T/C (dose: 12.5 mg/kg/injection, schedule: Q01DX005 (ip), vehicle: Klucel (hydroxypropylcellulose) (HPC)): 102 % of control
- T/C [11]: 104 % of control
- T/C [4]: 100 % of control and 101 % of control
- T/C [5]: 100 % of control
- T/C [6]: 99 % of control

SMILES: N/N=C1\C(Cl)=C(Cl)c2ccccc21
- T/C [4]: 90 % of control
- T/C [5]: 93 % of control
- T/C [6]: 90 % of control

SMILES: CS(=O)(=O)OCCN(CCOS(C)(=O)=O)c1ccc(C=Nc2ccc(-c3csc(COc4ccccc4)n3)cc2)cc1
- T/C [12]: 150 % of control and 151 % of control
- T/C [13]: 151 % of control and 154 % of control and 164 % of control
- T/C (dose: 25.0 mg/kg/injection, schedule: Q01DX009 (oral), vehicle: Klucel (hydroxypropylcellulose) (HPC)): 101 % of control and 104 % of control
- T/C [1]: 162 % of control and 164 % of control and 166 % of control
- T/C (dose: 50.0 mg/kg/injection, schedule: Q01DX009 (oral), vehicle: Klucel (hydroxypropylcellulose) (HPC)): 101 % of control and 106 % of control
- T/C (dose: 100.0 mg/kg/injection, schedule: Q01DX009 (oral), vehicle: Klucel (hydroxypropylcellulose) (HPC)): 102 % of control and 108 % of control
- T/C (dose: 200.0 mg/kg/injection, schedule: Q01DX009 (oral), vehicle: Klucel (hydroxypropylcellulose) (HPC)): 107 % of control
- T/C (dose: 400.0 mg/kg/injection, schedule: Q01DX009 (ip), vehicle: Klucel (hydroxypropylcellulose) (HPC)): 112 % of control
- T/C (dose: 400.0 mg/kg/injection, schedule: Q01DX009 (oral), vehicle: Klucel (hydroxypropylcellulose) (HPC)): 109 % of control
- T/C (dose: 800.0 mg/kg/injection, schedule: Q01DX009 (oral), vehicle: Klucel (hydroxypropylcellulose) (HPC)): 109 % of control

SMILES: COc1cc(/C=N/OC(=O)Nc2ccccc2)cc(OC)c1OC
- T/C [14]: 96 % of control
- T/C [15]: 91 % of control
- T/C [7]: 91 % of control

SMILES: COc1cc2c(c(OC)c1OC)-c1ccc(=O)c(OC)cc1[C@@H](N(C)C)CC2
- T/C (dose: 2.5 mg/kg/injection, schedule: Q01DX009 (ip), vehicle: Klucel (hydroxypropylcellulose) (HPC)): 100 % of control
- T/C (dose: 5.0 mg/kg/injection, schedule: Q01DX009 (ip), vehicle: Klucel (hydroxypropylcellulose) (HPC)): 106 % of control
- T/C (dose: 10.0 mg/kg/injection, schedule: Q01DX009 (ip), vehicle: Klucel (hydroxypropylcellulose) (HPC)): 107 % of control
- T/C (dose: 20.0 mg/kg/injection, schedule: Q01DX009 (ip), vehicle: Klucel (hydroxypropylcellulose) (HPC)): 110 % of control
- T/C (dose: 40.0 mg/kg/injection, schedule: Q01DX009 (ip), vehicle: Klucel (hydroxypropylcellulose) (HPC)): 110 % of control

SMILES: CCOC(=O)C(Cc1ccc(N(CCCl)CCCl)cc1)NC(=O)C(NC(C)=O)C(C)C (stereo unspecified)
- T/C (dose: 5.0 mg/kg/injection, schedule: Q04DX003 (ip), vehicle: water): 123 % of control
- T/C (dose: 20.0 mg/kg/injection, schedule: Q04DX003 (ip), vehicle: water): 160 % of control
- T/C (dose: 40.0 mg/kg/injection, schedule: Q04DX003 (ip), vehicle: water): 241 % of control

SMILES: CC(C)(O)[C@H]1[C@@H]2OC(=O)[C@H]1[C@]1(O)C[C@H]3OC34C(=O)O[C@H]2[C@@]41C (stereo partly specified) (tested in a mixture with another compound)
- T/C (dose: 0.25 mg/kg/injection, schedule: Q01DX009 (ip), vehicle: Klucel (hydroxypropylcellulose) (HPC)): 99 % of control
- T/C (dose: 0.5 mg/kg/injection, schedule: Q01DX009 (ip), vehicle: Klucel (hydroxypropylcellulose) (HPC)): 113 % of control
- T/C (dose: 1.0 mg/kg/injection, schedule: Q01DX009 (ip), vehicle: Klucel (hydroxypropylcellulose) (HPC)): 100 % of control
- T/C (dose: 2.0 mg/kg/injection, schedule: Q01DX009 (ip), vehicle: Klucel (hydroxypropylcellulose) (HPC)): 96 % of control
- T/C [13]: 99 % of control
- T/C [1]: 105 % of control
- T/C [2]: 106 % of control
- T/C [3]: 96 % of control

SMILES: NNc1ncnc2c1ccn2C1OC(CO)C(O)C1O (stereo unspecified)
- T/C [14]: 108 % of control
- T/C [15]: 113 % of control
- T/C (dose: 37.5 mg/kg/injection, schedule: Q01DX009 (ip), vehicle: saline with Tween-80): 118 % of control

SMILES: Cc1cc2c(cc1S(=O)(=O)O)C1C(C3C2C2(Cl)C(Cl)=C(Cl)C3(Cl)C2(Cl)Cl)C2(Cl)C(Cl)=C(Cl)C1(Cl)C2(Cl)Cl (stereo unspecified)
- T/C (dose: 50.0 mg/kg/injection, schedule: Q01DX009 (ip), vehicle: saline): 101 % of control
- T/C (dose: 100.0 mg/kg/injection, schedule: Q01DX009 (ip), vehicle: saline): 92 % of control
- T/C (dose: 200.0 mg/kg/injection, schedule: Q01DX009 (ip), vehicle: saline): 92 % of control

SMILES: CN(C)c1c(-c2ccc(Cl)cc2)cc(-c2ccccc2)[nH]c1=O
- T/C (dose: 1.56 mg/kg/injection, schedule: Q01DX009 (ip), vehicle: Klucel (hydroxypropylcellulose) (HPC)): 101 % of control
- T/C (dose: 3.13 mg/kg/injection, schedule: Q01DX009 (ip), vehicle: Klucel (hydroxypropylcellulose) (HPC)): 101 % of control
- T/C (dose: 6.25 mg/kg/injection, schedule: Q01DX009 (ip), vehicle: Klucel (hydroxypropylcellulose) (HPC)): 100 % of control
- T/C [12]: 99 % of control and 89 % of control
- T/C [1]: 101 % of control
- T/C [2]: 106 % of control

SMILES: CN1CCC(=C(C#N)C(=O)O)CC1
- T/C (dose: 50.0 mg/kg/injection, schedule: Q01DX005 (ip), vehicle: saline): 103 % of control
- T/C (dose: 100.0 mg/kg/injection, schedule: Q01DX005 (ip), vehicle: saline): 95 % of control
- T/C (dose: 200.0 mg/kg/injection, schedule: Q01DX005 (ip), vehicle: saline): 103 % of control

SMILES: COc1ccc(/C=C/C(=O)c2ccccc(=O)c2O)c(OC)c1OC
- T/C [11]: 105 % of control
- T/C [4]: 99 % of control
- T/C [5]: 109 % of control
- T/C [6]: 108 % of control

SMILES: Cc1cc(C)[nH]n1
- T/C [9]: 110 % of control
- T/C [10]: 105 % of control
- T/C (dose: 400.0 mg/kg/injection, schedule: Q01DX009 (ip), vehicle: saline with Tween-80): 120 % of control

SMILES: c1ccc(N=N/C(=N\Nc2ccccc2)SCCS/C(N=Nc2ccccc2)=N/Nc2ccccc2)cc1
- T/C [7]: 98 % of control and 97 % of control
- T/C [8]: 93 % of control and 97 % of control
- T/C [9]: 111 % of control and 92 % of control
- T/C [10]: 98 % of control

SMILES: Nc1cc2c(c[n+](CCCCCCC[n+]3cc4c5ccccc5c(N)cc4c4ccccc43)c3ccccc23)c2ccccc12
- T/C (dose: 1.56 mg/kg/injection, schedule: Q04DX003 (ip), vehicle: other): 150 % of control and 153 % of control
- T/C (dose: 3.13 mg/kg/injection, schedule: Q04DX003 (ip), vehicle: other): 155 % of control
- T/C (dose: 6.25 mg/kg/injection, schedule: Q04DX003 (ip), vehicle: other): 150 % of control and 173 % of control
- T/C (dose: 12.5 mg/kg/injection, schedule: Q04DX003 (ip), vehicle: other): 166 % of control and 180 % of control
